Where two headings read alike, the source gives them in different places.
What was measured:
[1] = tested on: rat isolated perfused heart; assay: Coronary conductance / coronary perfusion pressure in isolated perfused rat hearts; settings: Rattus norvegicus
Procedure: Briefly, rats of either sex weighing 230-260 grams were anesthetized by intraperitoneal injection of a mixture of ketamine (100 mg/ml) and xylazine (20 mg/ml). The chest of each rat was opened and the heart removed, and rinsed in ice-cold modified Krebs-Henseleit (K-H) solution containing NaCl 117.9, KCl 4.5, CaCl2 2.5, MgSO4 1.18, KH2PO4 1.18, pyruvate 2.0 mmo/L. The aorta was cannulated and the heart was perfused at a flow rate of 10 ml/min with modified K-H solution. The K-H solution (pH 7.4) was gassed continuously with 95% O2 and 5% CO2 and warmed to 35±0.5° C. The heart was electrically paced at a fixed cycle length of 240 ms (250 beats/min) using a bipolar electrode placed in the left atrium. The electrical stimuli were generated by a Grass stimulator (Model S48, W. Warwick, R.I.) and delivered through a Stimuli Isolation Unit (Model SIU5, Astro-Med, Inc., NY) as square-wave pulses of 3-msec in duration and with an amplitude of at least twice the threshold intensity.
The identity of the adenosine receptor subtype (A1 or A2A) mediating the coronary vasodilation was determined.
Coronary perfusion pressure (CPP) was measured using a pressure transducer that was connected to the aortic cannula via a T-connector positioned approximately 3 cm above the heart. CPP was monitored throughout an experiment and recorded either on a chart recorder (Gould Recorder 2200S, Valley View, Ohio) or a computerized recording system (PowerLab/4S, ADInstruments Pty Ltd, Australia). Only hearts with CPP ranging from 60 to 85 mmHg (in the absence of drugs) were used in the study. CC conductance (in ml/min/mmHg) was calculated as the ratio between coronary perfusion rate (10 ml/min) and CPP.

[2] = molecular target: A2A adenosine receptors (Rattus norvegicus, UniProt P30543); assay: Competitive radioligand binding, [3H]ZM241385, PC12 cell membranes; settings: PC12 cells (A2A)
Sequence of A2A adenosine receptors (Rattus norvegicus, UniProt P30543) (P30543 whole entry): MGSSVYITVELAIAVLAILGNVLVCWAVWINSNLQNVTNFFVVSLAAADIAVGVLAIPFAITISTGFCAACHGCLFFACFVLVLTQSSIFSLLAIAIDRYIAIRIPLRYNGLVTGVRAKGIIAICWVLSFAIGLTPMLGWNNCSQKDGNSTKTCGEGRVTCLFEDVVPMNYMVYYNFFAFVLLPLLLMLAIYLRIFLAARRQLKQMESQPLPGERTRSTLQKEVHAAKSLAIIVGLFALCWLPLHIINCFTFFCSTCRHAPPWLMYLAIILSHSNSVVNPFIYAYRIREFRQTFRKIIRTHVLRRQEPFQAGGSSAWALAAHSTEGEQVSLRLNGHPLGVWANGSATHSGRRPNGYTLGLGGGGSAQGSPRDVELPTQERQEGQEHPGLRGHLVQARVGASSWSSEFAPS
Procedure: Rat pheochromocytoma PC12 cells were obtained from the American Type Culture Collection and grown in DMEM with 5% fetal bovine serum, 10% horse serum, 0.5 mmol/L L-glutamine, 100 U/mL penicillin, 0.1 mg/l mL streptomycin, and 2.5 μg/mL amphotericin.
Cell membranes were harvested from the cell lines by detaching cells from the culture plates into ice-cold 50 mmol/L Tris-HCl buffer (pH 7.4). The cell suspensions were homogenized and centrifuged at 48,000g for 15 minutes. The pellets were washed three times by re-suspension in ice-cold Tris-HCl buffer and centrifugation. The final pellet was re-suspended in Tris-HCl, aliquoted and frozen at −80° C. until used for receptor binding assays.
Briefly, membrane suspensions, obtained from cells expressing either adenosine receptor subtypes A1, A2A, A2B or A3were incubated for 2 hours at room temperature in 50 mmol/L Tris-HCl buffer (pH 7.4) containing ADA (1U/mL). […] At the end of the incubation, free radioligand was separated from membrane-bound radioligand by filtration through Whatman GF/C glass fiber filters using a Brandel tissue harvester (Gaithersburg, Md.). Triplicate determinations were performed for each concentration of unlabelled compound.

[3] = molecular target: T1, human A1 adenosine receptors (Homo sapiens, UniProt P30542); assay: Competitive radioligand binding, [3H]CPX, CHO-hA1AdoR membranes; settings: [3H]CPX
T1 construct: expressed in transfected cells
T1 sequence (P30542 1-326): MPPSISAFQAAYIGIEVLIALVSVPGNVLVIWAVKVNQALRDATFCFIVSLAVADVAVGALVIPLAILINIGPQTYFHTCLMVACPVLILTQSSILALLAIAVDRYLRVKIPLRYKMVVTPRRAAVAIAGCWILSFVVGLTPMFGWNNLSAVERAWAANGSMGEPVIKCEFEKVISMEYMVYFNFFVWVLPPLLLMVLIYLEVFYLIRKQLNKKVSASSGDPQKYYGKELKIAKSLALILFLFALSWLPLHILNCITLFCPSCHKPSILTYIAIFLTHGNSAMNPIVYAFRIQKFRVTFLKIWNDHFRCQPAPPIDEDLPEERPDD
Procedure: The cell suspensions were homogenized and centrifuged at 48,000g for 15 minutes. The pellets were washed three times by re-suspension in ice-cold Tris-HCl buffer and centrifugation. The final pellet was re-suspended in Tris-HCl, aliquoted and frozen at −80° C. until used for receptor binding assays.

[4] = Coronary blood flow and reversal time, intracoronary infusion in open-chest anesthetized pigs; assay type: in vivo
Procedure: The magnitude of the effect of A2A adenosine receptor agonists on coronary dilation and the duration of the effect was determined in pigs weighing 22-27 kg. […] In addition, animals were used in accordance with the guidelines of the University of Kentucky Institutional Animal Care and Use Protocol.
Anesthesia was maintained with additional sodium pentobarbital (1.5-2 mg/kg, i.v.) every 15-20 minutes. Animals were ventilated via a tracheotomy tube using a mixture of room air and 100% O2. Tidal volume, respiratory rate and fraction of O2 in inspired air were adjusted to maintain arterial blood gas (ABG) and pH values. […] Lactate Ringers solution was administered via an ear or femoral vein as an initial bolus of 300-400 ml followed by a continuous infusion at a rate of 5-7 ml/kg/hr. A catheter was inserted into the femoral artery to monitor arterial blood pressure.
The heart was exposed through a median sternotomy and suspended in a pericardial cradle. Left ventricular pressure (LVP) was measured with a 5F high fidelity pressure sensitive tip transducer (Millar Instruments, Houston, Tex.) placed in the left ventricular cavity via an apical incision and secured with a purse string suture. A segment of the left anterior descending coronary artery (LAD), proximal to the origin of the first diagonal branch, was dissected free of surrounding tissue. A transit time perivascular flow probe (Transonic Systems Inc., Ithaca, N.Y.) was placed around this segment to measure CBF. Proximal to the flow probe, a 24-gauge modified angiocatheter was inserted for intracoronary infusions. […] The A2A adenosine receptors agonists were administered intracoronary.
Relationship between affinity of various agonists for A2A adenosine receptor and the reversal time of their effect to increase coronary conductance was determined in pigs. Each experiment was preceded by a 30-minute stabilization period following the completion of all instrumentation of the animal. Baseline hemodynamic data were then recorded and an intracoronary infusion of an A2A Adenosine receptors agonist was initiated. Each infusion was maintained for 4-5 minutes to allow LAD CBF to reach a steady-state, after which the infusion was terminated. The times to recovery of CBF by 50% (t0.5) and 90% (t0.9) of the difference from peak effect to baseline CBF were recorded. Ten to 15 minutes after CBF returned to pre-drug values a second infusion with a different agonist was started. […] Hemodynamic measurements were made prior to and following the initiation of the phenylephrine infusion. The phenylephrine infusion rate was adjusted during and following the infusions of the adenosine receptor agonists to maintain arterial blood pressure within 5 mmHg of pre-infusion values. The effect of a maximum of three different agonists was determined in each experiment.

[5] = molecular target: A2A adenosine receptors (Sus scrofa, UniProt K9IW67); assay: Competitive radioligand binding, [3H]ZM241385, pig striatum membranes
Sequence of A2A adenosine receptors (Sus scrofa, UniProt K9IW67) (K9IW67 1-409): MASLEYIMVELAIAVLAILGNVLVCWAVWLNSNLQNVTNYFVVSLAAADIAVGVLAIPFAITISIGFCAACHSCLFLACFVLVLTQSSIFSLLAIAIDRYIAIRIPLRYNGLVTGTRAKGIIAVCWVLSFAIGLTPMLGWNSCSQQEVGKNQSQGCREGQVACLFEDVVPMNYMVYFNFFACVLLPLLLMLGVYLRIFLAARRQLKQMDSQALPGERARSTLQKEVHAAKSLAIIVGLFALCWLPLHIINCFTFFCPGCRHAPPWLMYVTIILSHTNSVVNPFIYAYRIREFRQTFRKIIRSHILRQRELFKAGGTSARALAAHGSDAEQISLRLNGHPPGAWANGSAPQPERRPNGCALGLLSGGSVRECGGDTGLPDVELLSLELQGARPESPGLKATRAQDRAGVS
Procedure: Membranes were also obtained from porcine striatial cells as follows. […] The homogenate was filtered through cotton gauze and centrifuged at 48,000g for 15 minutes at 4° C. […] The final pellet was frozen at −80° C. until used for receptor binding assays.

[6] = molecular target: human A2A adenosine receptors (Homo sapiens, UniProt P29274); assay: Competitive radioligand binding, [3H]ZM241385, HEK-hA2AAdoR membranes; settings: HEK-hA2AAdoR
Sequence of human A2A adenosine receptors (P29274 whole entry): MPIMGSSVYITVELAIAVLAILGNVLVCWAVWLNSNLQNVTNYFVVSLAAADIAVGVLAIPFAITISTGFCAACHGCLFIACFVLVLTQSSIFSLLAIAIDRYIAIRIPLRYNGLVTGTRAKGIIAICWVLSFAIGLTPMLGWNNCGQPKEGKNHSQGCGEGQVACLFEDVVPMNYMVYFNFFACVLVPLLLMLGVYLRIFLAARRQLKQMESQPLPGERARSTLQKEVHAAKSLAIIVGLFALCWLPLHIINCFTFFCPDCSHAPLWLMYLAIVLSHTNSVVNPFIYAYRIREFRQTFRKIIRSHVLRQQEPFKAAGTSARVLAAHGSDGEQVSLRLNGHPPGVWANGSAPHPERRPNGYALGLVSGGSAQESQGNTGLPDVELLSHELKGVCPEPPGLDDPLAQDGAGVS
Procedure: Each point represents the mean±SEM of triplicates pooled from at least three experiments.
ZM241385 was purchased from Tocris Cookson Ltd (Langford, Bristol, UK).
Competitive radiolabeling binding assays were performed to determine the binding affinities of the compounds of the invention for the adenosine receptor subtypes, A1, A2A, A2B and A3. Briefly, membrane suspensions, obtained from cells expressing either adenosine receptor subtypes A1, A2A, A2B or A3were incubated for 2 hours at room temperature in 50 mmol/L Tris-HCl buffer (pH 7.4) containing ADA (1U/mL). […] At the end of the incubation, free radioligand was separated from membrane-bound radioligand by filtration through Whatman GF/C glass fiber filters using a Brandel tissue harvester (Gaithersburg, Md.). Triplicate determinations were performed for each concentration of unlabelled compound.

[7] = molecular target: T2, A2A adenosine receptors (PC12 cells) (Rattus norvegicus, UniProt P30543); assay: cAMP accumulation in PC12 cells
T2 sequence (P30543 whole entry, the tested form may be a part): as the sequence (P30543 whole entry) above
Procedure: Effects of adenosine receptor agonists on cAMP content in intact PC12 cells. […] Cyclic AMP levels were determined as described under “Methods”. Values represent mean±SEM of results of triplicate samples from three experiments. […] Values represent mean±SEM of triplicate determinants from one representative experiment.
Briefly, PC12 cells were rinsed three times with Hanks' balanced saline solution (HBSS), detached using a cell lifter, and pelleted by centrifugation at 500 g for 5 minutes. Aliquots of the cell suspension (0.1 to 0.2 mg protein) were placed in microfuge tubes with 250 μL of HBSS containing rolipram (50 μmol/L) to inhibit phosphodiesterases that degrade cAMP_and warmed to 37° C. Appropriate drugs were added to the cell suspensions, and incubations were allowed to continue for 10 minutes. Tubes were placed in a boiling water bath for 5 minutes to terminate the incubation. The samples were then cooled to room temperature, diluted by the addition of 1 mL of 10 mmol/L Tris-HCl buffer at pH 7.4, and then centrifuged for 2 minutes at 13000 g.
The samples were then incubated at 4° C. for 16 hours. At the end of the incubation, 70 μL of a 50% (wt/vol) hydroxyapatite suspension was added to each tube. The suspensions were gently agitated and then incubated for 10 minutes at 4° C. Antibody-bound radioactivity adsorbed to hydroxyapatite was collected onto glass fiber filters by vacuum filtration using a Brandel cell harvester. Radioactivity retained by the filter was counted in a gamma counter. […] The amount of cAMP present in samples was calculated based on a standard curve using known amounts of cAMP.

[8] = tested on: rat isolated perfused heart; assay: Reversal time of coronary vasodilation in rat isolated perfused hearts; settings: bolus, rat isolated perfused heart;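 also: each agonist bolused at its minimal concentration giving equal maximal coronary conductance rise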
Procedure: FIG. 10. Reversal of effect of agonist stimulation on CC. […] CC was measured at 8, 16 and 24 minutes after administration (FIG. 10A). […] R and N are the correlation coefficient and number of agonists, respectively.
The relationship between the affinity of agonists for the A2A receptor and the rate of reversal of agonist-mediated responses (coronary vasodilation in heart and cAMP accumulation in PC12 cells) upon termination of drug administration were determined. […] The duration of the coronary vasodilation in isolated rat hearts caused by adenosine, the CVT compounds, and other agonists measured as the time to 50% and 90% (t0.5 and t0.9, respectively) reversal of the increases in coronary conductance after termination of drug administration are summarized in Table 4.

[9] = molecular target: T2, A2A adenosine receptors (PC12 cells); assay: Rate of decline of agonist-stimulated cAMP in PC12 cells after A2A antagonist SCH58261; settings: agonist 1 μM, after addition of SCH58261 (20 μM)
[10] = read-out: EC50, Coronary Conductance (Rat Isolated Heart)
[11] = read-out: pEC50 ± SEM, Coronary Conductance (Rat Isolated Heart) (converted)
[12] = read-out: pKi ± SEM, CHO-hA1AdoR (converted)
[13] = [3H]ZM241385, Gpp(NH)p present, read-out: Ki, Pig Strialum (A2A)

Compound	EC50 [1, 10] [nM]	EC50 [1, 11] [nM]	Ki ([2]; Ki) [nM]	Ki ([3]; read-out: Ki, CHO-hA1AdoR) [nM]	Ki [3, 12] [nM]	t0.5, time to 50% reversal of the increase in coronary conductance [8] [min]	t0.9, time to 90% reversal of the increase in coronary conductance [8] [min]	Ki [5, 13] [nM]	also measured
Nc1nc(N/N=C/C2CCCCC2)nc2c1ncn2[C@@H]1O[C@H](CO)[C@@H](O)[C@H]1O [WRC0470, 2-cyclohexylmethylidenehydrazinoadenosine, reference compound]	0.62	0.646	18	7280	6920				Ki ([2]; pKi ± SEM): 17 nM; t0.5 reversal of increase in coronary blood flow ([4]; 1 ug/kg/min intracoronary): 9.5 ± 0.8 min; t0.9 reversal of increase in coronary blood flow ([4]; 1 ug/kg/min intracoronary): 22.5 ± 1.6 min; Ki [5]: 20.7 nM
Nc1nc(C#CCOc2ccccc2)nc2c1ncn2C1O[C@@H](CO)[C@H](O)[C@@H]1O (stereo partly drawn) [CVT-2995]	0.68	0.676		866	851	17.5 ± 1.2	23.2 ± 2.1	14.4	Ki ([6]; Ki, [3H]ZM241385): 305 nM; Ki ([6]; pKi ± SEM, [3H]ZM241385): 302 nM; EC50 ([7]; EC50, cAMP Accumulation (PC12 cells)): 6.6 nM; EC50 ([7]; pEC50 ± SEM, cAMP Accumulation (PC12 cells)): 1.51 nM; Ki ([2]; Ki, [3H]ZM241385): 53 nM; t0.5, rate of decline of cAMP accumulated [9]: 3.9 ± 0.6 min; Ki ([5]; [3H]ZM241385, Gpp(NH)p present, read-out: pKi ± SEM, Pig Strialum (A2A) (converted)): 13.8 nM
Nc1nc(-c2cnn(Cc3ccccc3)c2)nc2c1ncn2C1O[C@@H](CO)[C@H](O)[C@@H]1O (stereo partly drawn) [CVT-3032]	66.5	66.1	5520	6350	6030	4.1 ± 0.3	9.8 ± 1.4	1590	Ki ([6]; Ki): 13700 nM; Ki ([6]; pKi ± SEM): 13500 nM; EC50 [7]: 613 nM; agonist behaviour in PC12 cells [7]: partial A2A agonists; Emax ([7]; PC-12, read-out: maximal response of cAMP accumulation, % of that induced by CGS21680): 65%; CBF (fold-increase) ([4]; 30 ug/kg/min intracoronary): 3.78 ± 0.70 fold; t0.5 reversal of increase in coronary blood flow ([4]; 30 ug/kg/min intracoronary): 2.3 ± 0.6 min; t0.9 reversal of increase in coronary blood flow ([4]; 30 ug/kg/min intracoronary): 9.6 ± 1.0 min

Source: patent publication US20050175535A1 (CV Therapeutics, Inc., priority 2000, published 2005)
